We go through three compounds from US10653659B2, “Compositions comprising a compound from the family of avermectins and an agonist compound for at least one of the retinoic acid receptors for treating acne” (GALDERMA SA, priority 2014, dated 2020).

Where “and” joins values, the source holds several entries; their conditions need not be identical. Identical values can stand only once.

In the test the test system is patients with acne. The experiment in a line: Comparative clinical study among patients with acne. Format: in vivo, human. To be noted: Treatment A (first treatment, retinoids without ivermectin); scale from 0 to 5; one acne patient per line; duration varies per patient. The protocol: A comparative study was carried out among patients with acne. […] These same patients then received a second treatment (Treatment B) containing ivermectin and were followed over several months.
By way of example, mention may be made of: Differin 0.3%®, Epiduo®, Metrogel® and Epiduo Forte® marketed by Galderma Laboratories, Accutane® from Roche Laboratories, and Ziana® from Medicis Pharmaceutical Corp.
With `COc1ccc(-c2ccc3cc(C(=O)O)ccc3c2)cc1C12CC3CC(CC(C3)C1)C2` [adapalene 0.3%, 6-[3-(1-adamantyl)-4-methoxyphenyl]-2-naphthoic acid], the Satisfaction score was 1 and 0.
Then `CC1=C(/C=C/C(C)=C/C=C/C(C)=C/CO)C(C)(C)CCC1` [retinol 0.05%, retinol], with 0; and `CC1=C(/C=C/C(C)=C/C=C/C(C)=C/C(=O)O)C(C)(C)CCC1` [tretinoin 0.05%, tretinoin], with 0.
